This is an account of results in PubChem BioAssay (NCI).

What all share (experiment): NCI-60 cell line screen, 48 h
Experiment [1] deals with NCI/ADR-RES ovarian.
Experiment [2] relates to OVCAR-3 ovarian.
For experiment [3], the system named is PC-3 prostate.
Experiment [4] deals with SK-MEL-2 melanoma.
For experiment [5], the system named is A498 renal.
In experiment [6] the test system is HCT-116 colon.
For experiment [7], the system named is ACHN renal.

Each structure is given as a SMILES string.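 Test compounds were applied to cells in 96-well plates for 48 hours at 5 doses. Here, GI50 denotes the concentration required for 50% inhibition of growth. TGI marks complete inhibition of growth.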

On to `COc1ccc2[nH]c(C(=O)N3CCN(C(=O)OCc4ccc5c(Cl)cc(Cl)c(O)c5n4)CC3)cc2c1`, for which the GI50 in experiment [1] is 1.83 µM; in experiment [2], 0.504 µM; in experiment [3] it was 1.06 µM; in experiment [4], 1.61 µM; in experiment [5] it was 1.59 µM; in experiment [6], 0.295 µM. Also, the GI50 in experiment [7] is 0.592 µM. For the same compound, the TGI is 6.37 µM in experiment [1]; 1.83 µM in experiment [2]; 2.67 µM in experiment [3]; 3.06 µM in experiment [4]; 2.99 µM in experiment [5]; 1.35 µM in experiment [6]. The same compound displayed a TGI in experiment [7] of 1.87 µM.

Turning to `CC1(C)CC(C)(C)c2cc(NC(=S)Nc3ccc([N+](=O)[O-])cc3)ccc2S1`, the GI50 in experiment [1] is 13.9 µM; in experiment [2], 9.75 µM; in experiment [3], 9.69 µM; in experiment [4] it was 10.5 µM; in experiment [5], 9.16 µM; in experiment [6], 14.9 µM. Besides, the GI50 in experiment [7] is 10.1 µM. In addition, the TGI is 48.2 µM in experiment [1]; 31.2 µM in experiment [2]; 22.4 µM in experiment [3]; 23.1 µM in experiment [4]; 19.1 µM in experiment [5]; > 100 µM in experiment [6]. In addition, the TGI in experiment [7] stood at 24.6 µM.

In the case of `COC1=CC(=O)O/C1=C(\OC)C1OC1c1ccccc1` (configuration not stated), the TGI in experiment [1], in experiment [2], in experiment [3], in experiment [4], in experiment [5] and in experiment [6] was > 100 µM each time. Also, the TGI in experiment [7] was > 100 µM.

For the compound `CC1=NN(c2cccc(Cl)c2)C(=O)/C1=C\c1cn(CC(O)CN2CCCCC2)c2ccccc12` (configuration not stated), the GI50 in experiment [1] was 4.79 µM; in experiment [2], 7.98 µM; in experiment [3], 9.81 µM; in experiment [4], 10.3 µM; in experiment [5], 14.6 µM; in experiment [6], 1.74 µM. Also, the GI50 in experiment [7] is 3.18 µM. Further, the TGI in experiment [1] came to 20.7 µM; in experiment [2] it was 20.9 µM; in experiment [3] it was 26.1 µM; in experiment [4], 24.7 µM; in experiment [5], 41.6 µM; in experiment [6] it was 3.35 µM. This compound also registered a TGI in experiment [7] of 14.6 µM.

Regarding `O=C(Nc1n[nH]c2cc(-c3cc(F)ccc3F)ccc12)C1CC1`, the GI50 in experiment [1] was 9.31 µM; in experiment [2] it was 9.3 µM; in experiment [3] it was 17.6 µM; in experiment [4], 12.2 µM; in experiment [5], > 25 µM; in experiment [6], 9.78 µM. Also, the GI50 in experiment [7] is > 25 µM. Also, the TGI in experiment [1] is > 25 µM; in experiment [2] it was 24.2 µM; in experiment [3] it was > 25 µM; in experiment [4] it was > 25 µM; in experiment [5], > 25 µM; in experiment [6], > 25 µM. Besides, the TGI in experiment [7] was > 25 µM.

As to `CCC[CH2][Sn-]([CH2]CCC)([CH2]CCC)[O]C(=O)C(C)C`, the GI50 in experiment [1] is 0.154 µM; in experiment [2], 0.114 µM; in experiment [3], 0.107 µM; in experiment [4], 0.189 µM; in experiment [5], 0.153 µM; in experiment [6], 0.0553 µM. Further, the GI50 in experiment [7] was 0.142 µM. In addition, the TGI stood at 0.46 µM in experiment [1]; 0.238 µM in experiment [2]; 0.25 µM in experiment [3]; 0.411 µM in experiment [4]; 0.286 µM in experiment [5]; 0.182 µM in experiment [6]. Also, the TGI in experiment [7] turned out to be 0.273 µM.

Consider `O=S(=O)(NC1=NCCN1C(=S)SN1CCn2c1nsc2=S)c1ccc(Cl)cc1`, for which the GI50 in experiment [1] is 23.1 µM; in experiment [2], 2.54 µM; in experiment [3], 7.54 µM; in experiment [4], 5.93 µM; in experiment [5], 17.4 µM; in experiment [6], 5.15 µM. Besides, in experiment [7], the GI50 is 6.05 µM. Further, the TGI in experiment [1] was determined as 60.8 µM; in experiment [2] it was 12.2 µM; in experiment [3], 22.1 µM; in experiment [4], 22.7 µM; in experiment [5], 42.2 µM; in experiment [6], 21.1 µM. The compound also displayed a TGI in experiment [7] of 18.6 µM.

Regarding `COc1ccc(-c2ccc(OC)c(OC)c2OC)cc1`, the GI50 is 0.529 µM in experiment [1]; 1.41 µM in experiment [2]; 3.62 µM in experiment [3]; 3.8 µM in experiment [4]; 2.27 µM in experiment [5]; 1.13 µM in experiment [6]. For the same compound, the GI50 in experiment [7] is 8 µM. Further, the TGI in experiment [1] was 5.38 µM; in experiment [2], 4.49 µM; in experiment [3], > 100 µM; in experiment [4], > 100 µM; in experiment [5], > 31.2 µM; in experiment [6], 32.6 µM. Further, the TGI in experiment [7] is > 100 µM.

As for `O=C(Nc1ccc(Cl)cc1C(F)(F)F)C(=O)Nn1c(=S)[nH]c2ccccc2c1=O`, the TGI in experiment [1], in experiment [2], in experiment [3], in experiment [4], in experiment [5] and in experiment [6] was > 100 µM each time. Also, the TGI in experiment [7] is > 100 µM.
